Test results taken from patent publication US8664277B2, “Compounds and methods for PKCθ inhibition” (Complegen Partners, LLC, priority 2008, dated 2014).
Like-named read-outs stand apart in the source and are kept apart here. Each block holds one compound with its values, some of them ahead of it.

Legend:
Format in all cases: cell-based
Human PKC theta = target: T1, Human PKC theta (Homo sapiens, UniProt Q04759); experiment: XenoGene yeast growth inhibition, yeast containing human PKC theta gene
T1 construct: expressed in transfected cells; host or cells: yeast (XenoGene strain)
T1 sequence (Q04759 whole entry): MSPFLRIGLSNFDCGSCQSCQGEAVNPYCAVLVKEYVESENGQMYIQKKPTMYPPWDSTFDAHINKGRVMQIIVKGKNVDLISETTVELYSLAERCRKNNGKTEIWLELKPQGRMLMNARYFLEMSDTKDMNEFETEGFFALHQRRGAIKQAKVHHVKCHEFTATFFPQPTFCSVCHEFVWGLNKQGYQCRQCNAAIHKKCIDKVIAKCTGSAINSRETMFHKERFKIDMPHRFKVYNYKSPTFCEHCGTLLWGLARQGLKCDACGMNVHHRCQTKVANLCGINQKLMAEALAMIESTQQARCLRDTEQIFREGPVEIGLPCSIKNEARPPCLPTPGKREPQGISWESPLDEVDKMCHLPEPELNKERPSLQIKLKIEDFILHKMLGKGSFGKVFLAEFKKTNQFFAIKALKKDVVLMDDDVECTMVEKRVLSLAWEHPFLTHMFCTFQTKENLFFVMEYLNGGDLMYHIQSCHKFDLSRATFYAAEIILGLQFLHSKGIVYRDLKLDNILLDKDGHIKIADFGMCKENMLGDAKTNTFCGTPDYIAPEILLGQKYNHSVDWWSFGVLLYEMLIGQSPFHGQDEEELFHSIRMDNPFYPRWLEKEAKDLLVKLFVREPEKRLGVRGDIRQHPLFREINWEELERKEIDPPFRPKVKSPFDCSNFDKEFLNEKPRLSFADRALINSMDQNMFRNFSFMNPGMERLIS
From the text: Using the XenoGene™ system described within, compounds inhibiting PKCθ are identified. The XenoGene™ system is a technology developed and patented by CompleGen wherein genes (“XenoGenes”™) from a target organism (e.g. humans) are used to functionally replace essential genes of a simple organism (yeast). These modified yeast are used to select compounds that act specifically on the protein encoded by the target gene and eliminate compounds that are not specific. […]

PKC delta = target: T2, PKC delta (Homo sapiens, UniProt Q05655); experiment: XenoGene counter-screen, PKC delta; details: inverse of (PKC-theta IC50)/(PKC-X IC50)
T2 construct: expressed in transfected cells; host or cells: yeast (XenoGene strain)
T2 sequence (Q05655 whole entry): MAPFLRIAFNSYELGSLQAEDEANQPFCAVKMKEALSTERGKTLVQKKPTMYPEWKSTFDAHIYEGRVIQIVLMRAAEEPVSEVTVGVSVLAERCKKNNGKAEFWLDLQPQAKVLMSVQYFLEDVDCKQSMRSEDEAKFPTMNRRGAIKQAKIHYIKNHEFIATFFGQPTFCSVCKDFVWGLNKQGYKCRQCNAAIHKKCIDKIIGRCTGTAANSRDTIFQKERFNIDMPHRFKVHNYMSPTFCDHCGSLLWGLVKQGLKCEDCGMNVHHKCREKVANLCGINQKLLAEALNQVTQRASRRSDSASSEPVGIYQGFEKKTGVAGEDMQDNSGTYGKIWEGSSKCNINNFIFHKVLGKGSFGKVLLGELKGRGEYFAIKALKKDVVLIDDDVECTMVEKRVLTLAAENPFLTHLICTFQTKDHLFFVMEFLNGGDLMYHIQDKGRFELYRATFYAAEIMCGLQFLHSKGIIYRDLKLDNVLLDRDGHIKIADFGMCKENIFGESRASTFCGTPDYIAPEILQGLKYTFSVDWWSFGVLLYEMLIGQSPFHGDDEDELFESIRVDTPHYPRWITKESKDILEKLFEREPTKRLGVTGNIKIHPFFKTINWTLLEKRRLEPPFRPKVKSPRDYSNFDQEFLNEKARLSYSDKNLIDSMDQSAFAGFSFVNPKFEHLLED
Protocol: (§1) To identify compounds as being selective PKC theta inhibitors the IC50 values are determined against XenoGene™ strains containing other XenoGenes™, especially certain other PKC genes (see Example 10).
(§2) Human PKC theta gene (cDNA) was used to generate a XenoGene™ system as previously described (U.S. Pat. Nos. 6,998,261, 6,232,074), which was used to screen compounds in a chemical compound library. XenoGene™ systems used as counter-screens were constructed similarly using the gene for the appropriate counter-screen target. In particular, human genes (cDNA) encoding PKC delta, PKC eta and PKC epsilon were used to generate XenoGene™ systems.

PKC epsilon = target: T3, PKC epsilon (Homo sapiens, UniProt Q02156); experiment: XenoGene counter-screen, PKC epsilon; details: inverse of (PKC-theta IC50)/(PKC-X IC50)
T3 construct: expressed in transfected cells; host or cells: yeast (XenoGene strain)
T3 sequence (Q02156 1-737): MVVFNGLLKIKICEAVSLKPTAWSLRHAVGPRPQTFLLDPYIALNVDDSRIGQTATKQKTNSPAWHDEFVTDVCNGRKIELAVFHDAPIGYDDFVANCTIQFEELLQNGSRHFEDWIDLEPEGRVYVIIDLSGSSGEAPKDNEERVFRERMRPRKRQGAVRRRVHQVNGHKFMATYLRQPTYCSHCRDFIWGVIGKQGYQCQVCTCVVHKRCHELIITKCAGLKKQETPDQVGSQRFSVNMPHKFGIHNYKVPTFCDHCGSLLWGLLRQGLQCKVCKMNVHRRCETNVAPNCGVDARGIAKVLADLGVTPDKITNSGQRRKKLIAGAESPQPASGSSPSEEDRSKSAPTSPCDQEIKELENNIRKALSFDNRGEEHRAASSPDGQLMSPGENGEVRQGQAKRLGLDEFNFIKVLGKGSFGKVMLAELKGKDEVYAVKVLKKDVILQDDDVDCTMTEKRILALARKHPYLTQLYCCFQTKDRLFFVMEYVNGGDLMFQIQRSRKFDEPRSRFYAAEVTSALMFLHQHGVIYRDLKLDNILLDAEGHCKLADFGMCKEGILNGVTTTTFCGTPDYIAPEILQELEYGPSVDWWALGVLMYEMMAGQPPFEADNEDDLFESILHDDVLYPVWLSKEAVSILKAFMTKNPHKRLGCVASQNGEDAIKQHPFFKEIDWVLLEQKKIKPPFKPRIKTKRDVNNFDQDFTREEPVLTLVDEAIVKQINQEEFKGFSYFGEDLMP
Protocol: as §1, §2

PKC eta = target: T4, PKC eta (Homo sapiens, UniProt P24723); experiment: XenoGene counter-screen, PKC eta; details: inverse of (PKC-theta IC50)/(PKC-X IC50)
T4 construct: expressed in transfected cells; host or cells: yeast (XenoGene strain)
T4 sequence (P24723 whole entry): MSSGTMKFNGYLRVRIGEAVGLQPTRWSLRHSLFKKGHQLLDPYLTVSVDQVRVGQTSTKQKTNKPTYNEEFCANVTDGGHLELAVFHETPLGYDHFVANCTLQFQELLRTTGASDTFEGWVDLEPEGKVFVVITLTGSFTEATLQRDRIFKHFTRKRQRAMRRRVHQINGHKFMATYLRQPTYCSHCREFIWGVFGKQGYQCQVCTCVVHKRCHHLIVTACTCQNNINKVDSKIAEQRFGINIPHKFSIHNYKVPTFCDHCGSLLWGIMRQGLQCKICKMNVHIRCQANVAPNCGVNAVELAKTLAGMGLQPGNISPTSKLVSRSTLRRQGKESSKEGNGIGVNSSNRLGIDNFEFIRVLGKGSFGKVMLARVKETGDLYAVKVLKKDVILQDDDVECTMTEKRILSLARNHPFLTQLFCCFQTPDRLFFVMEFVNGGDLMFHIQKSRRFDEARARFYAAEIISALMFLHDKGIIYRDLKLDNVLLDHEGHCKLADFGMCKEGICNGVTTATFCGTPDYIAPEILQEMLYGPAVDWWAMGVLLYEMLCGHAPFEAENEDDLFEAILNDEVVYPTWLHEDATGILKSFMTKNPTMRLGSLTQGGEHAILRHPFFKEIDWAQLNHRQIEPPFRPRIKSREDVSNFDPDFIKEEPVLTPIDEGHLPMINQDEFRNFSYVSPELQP
Protocol: as §1, §2

yeast PKC1 = target: T5, yeast PKC1 (Saccharomyces cerevisiae, UniProt P24583); experiment: XenoGene counter-screen, yeast PKC1; details: inverse of (PKC-theta IC50)/(PKC-X IC50)
T5 construct: endogenous in cells; host or cells: yeast control strain
T5 sequence (P24583 1-1151): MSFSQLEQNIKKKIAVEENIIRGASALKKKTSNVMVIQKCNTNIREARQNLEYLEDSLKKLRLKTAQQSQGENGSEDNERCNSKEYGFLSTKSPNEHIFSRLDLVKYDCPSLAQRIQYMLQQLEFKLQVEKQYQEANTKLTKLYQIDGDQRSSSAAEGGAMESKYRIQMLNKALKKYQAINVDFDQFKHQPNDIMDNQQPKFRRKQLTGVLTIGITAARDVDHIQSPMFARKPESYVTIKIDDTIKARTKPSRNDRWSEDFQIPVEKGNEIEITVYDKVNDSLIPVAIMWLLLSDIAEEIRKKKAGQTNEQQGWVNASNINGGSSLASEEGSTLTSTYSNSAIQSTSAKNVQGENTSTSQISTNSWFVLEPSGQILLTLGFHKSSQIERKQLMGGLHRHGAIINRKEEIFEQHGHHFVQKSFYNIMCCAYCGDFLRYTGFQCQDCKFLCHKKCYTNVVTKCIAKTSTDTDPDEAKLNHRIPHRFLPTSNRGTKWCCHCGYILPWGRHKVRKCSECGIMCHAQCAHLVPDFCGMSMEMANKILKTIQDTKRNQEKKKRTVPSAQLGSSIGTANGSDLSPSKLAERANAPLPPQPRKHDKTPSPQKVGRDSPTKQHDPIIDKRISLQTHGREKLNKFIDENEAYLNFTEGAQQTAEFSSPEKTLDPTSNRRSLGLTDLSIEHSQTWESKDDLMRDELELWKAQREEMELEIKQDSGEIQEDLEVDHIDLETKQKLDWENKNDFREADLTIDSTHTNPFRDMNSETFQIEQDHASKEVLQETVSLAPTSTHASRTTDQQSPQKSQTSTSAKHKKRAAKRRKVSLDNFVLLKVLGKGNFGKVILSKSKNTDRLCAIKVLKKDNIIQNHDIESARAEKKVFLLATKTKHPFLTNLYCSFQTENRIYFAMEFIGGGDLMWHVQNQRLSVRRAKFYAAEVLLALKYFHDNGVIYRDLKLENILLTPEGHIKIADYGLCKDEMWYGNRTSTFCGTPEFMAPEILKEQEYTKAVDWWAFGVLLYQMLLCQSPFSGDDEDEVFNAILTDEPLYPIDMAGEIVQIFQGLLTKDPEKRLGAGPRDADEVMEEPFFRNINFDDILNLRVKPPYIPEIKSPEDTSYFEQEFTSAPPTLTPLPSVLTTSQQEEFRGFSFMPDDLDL
From the text: Using the XenoGene™ system described within, compounds inhibiting PKCθ are identified. The XenoGene™ system is a technology developed and patented by CompleGen wherein genes (“XenoGenes”™) from a target organism (e.g. humans) are used to functionally replace essential genes of a simple organism (yeast). These modified yeast are used to select compounds that act specifically on the protein encoded by the target gene and eliminate compounds that are not specific. XenoGene™ constructs provide a very high throughput screening system that allows identification of compounds active on the function of the target protein in a cell under physiological conditions on “first-pass” screening and further, to selectively counter-screen against 200 human targets or more if necessary. […] The relative potencies of the active compounds is determined by titration to find the concentration of compound providing 50% inhibition of growth (IC50) against the yeast containing the target gene (Table 1).
as §2

[1] = 50% inhibition of growth of yeast containing the target gene, read-out: IC50
[2] = XenoGene system, read-out: PKC-theta IC50
[3] = IC50, 50% inhibition of growth of yeast containing the target gene

Structure (SMILES): Nc1ccc(Oc2ccc(C(F)(F)F)cc2Br)cc1 [Compound 747]
IC50 (Human PKC theta; [1]): < 1000 nM

Structure (SMILES): CC(C)(C)c1ccc(S(=O)(=O)c2ccc(N)cc2)cc1 [Compound 749]
IC50 (Human PKC theta; [1]): 1000 to 10000 nM

Structure (SMILES): Nc1ccc(Oc2ccccc2C(=O)O)cc1 [Compound 553]
IC50 (Human PKC theta; [1]): > 10000 nM

Structure (SMILES): Nc1ccc(S(=O)(=O)c2ccc(C(F)(F)F)cc2)cc1 [Compound 753]
IC50 (Human PKC theta; [1]): 1000 to 10000 nM

Structure (SMILES): CCC(C)(C)c1ccc(Oc2ccc(N)cc2)cc1 [Compound 730]
IC50 (Human PKC theta; [1]): < 1000 nM

Structure (SMILES): CC(=O)Nc1ccc(Oc2ccc(Cl)cc2Cl)cc1 [Compound 501]
IC50 (Human PKC theta; [3]): > 10000 nM

Structure (SMILES): Nc1ccc(Oc2ccc(C(F)(F)F)cc2Cl)cc1 [Compound 499]
IC50 (Human PKC theta; [3]): < 1000 nM

Second part, the compound after the results:

Selectivity for PKC-theta v. PKC-delta (PKC delta): 13 | IC50 (Human PKC theta; [1]): < 1000 nM | IC50 (Human PKC theta; [2]): 400 nM | Selectivity for PKC-theta v. PKC-epsilon (PKC epsilon): 11 | Selectivity for PKC-theta v. PKC-eta (PKC eta): 3.0
Structure (SMILES): Cc1cc(Oc2ccc(N)cc2)ccc1Cl [Compound 505]

IC50 (Human PKC theta; [1]): < 1000 nM
Structure (SMILES): Nc1ccc(Oc2ccc(OC(F)(F)F)cc2Cl)cc1 [Compound 498]

IC50 (Human PKC theta; [1]): 1000 to 10000 nM
Structure (SMILES): Nc1ccc(Oc2ccc(C(F)(F)F)cc2)cc1 [Compound 733]

Selectivity for PKC-theta v. PKC-delta (PKC delta): 8.1 | IC50 (Human PKC theta; [1]): 1000 to 10000 nM | IC50 (Human PKC theta; [2]): 1600 nM | Selectivity for PKC-theta v. PKC-epsilon (PKC epsilon): 8.8 | Selectivity for PKC-theta v. PKC-eta (PKC eta): 1.8
Structure (SMILES): Nc1ccc(Oc2cc(Cl)cc(Cl)c2)cc1 [Compound 504]

Selectivity for PKC-theta v. PKC-delta (PKC delta): 1.9 | IC50 (Human PKC theta; [1]): 1000 to 10000 nM | IC50 (Human PKC theta; [2]): 1600 nM | Selectivity for PKC-theta v. PKC-epsilon (PKC epsilon): 2.5 | Selectivity for PKC-theta v. yeast PKC1 (yeast PKC1): 9.4 | Selectivity for PKC-theta v. PKC-eta (PKC eta): 0.63
Structure (SMILES): Nc1ccc(Oc2ccc(Cl)cc2Cl)cc1 [Compound 506, 4-(2,4-dichlorophenoxy)aniline]

IC50 (Human PKC theta; [1]): > 10000 nM
Structure (SMILES): Nc1ccc(Oc2ccccc2)cc1 [Compound 500]
